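All cell lines were grown in 96-well plates and treated with compound for 48 hours. GI50: concentration for 50% inhibition of growth. Definition used: TGI = concentration required for complete inhibition of growth.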
Experiments:
Assay in all cases: NCI-60 cell line screen, 48 h
HT29 colon = test system: HT29 colon
K-562 leukemia = test system: K-562 leukemia
OVCAR-5 ovarian = test system: OVCAR-5 ovarian
OVCAR-8 ovarian = test system: OVCAR-8 ovarian
RXF 393 renal = test system: RXF 393 renal
SNB-19 CNS = test system: SNB-19 CNS
SNB-75 CNS = test system: SNB-75 CNS
SR leukemia = test system: SR leukemia
SW-620 colon = test system: SW-620 colon
HS 578T breast = test system: HS 578T breast

| SMILES | TGI (HT29 colon) | TGI (K-562 leukemia) | TGI (OVCAR-5 ovarian) | TGI (OVCAR-8 ovarian) | TGI (RXF 393 renal) | TGI (SNB-19 CNS) | TGI (SNB-75 CNS) | TGI (SR leukemia) | TGI (SW-620 colon) | GI50 (HT29 colon) | GI50 (K-562 leukemia) | GI50 (OVCAR-8 ovarian) | GI50 (SNB-19 CNS) | GI50 (SR leukemia) | GI50 (SW-620 colon) | GI50 (HS 578T breast) | TGI (HS 578T breast) | GI50 (OVCAR-5 ovarian) | GI50 (RXF 393 renal) | GI50 (SNB-75 CNS) |
| --- | --- | --- | --- | --- | --- | --- | --- | --- | --- | --- | --- | --- | --- | --- | --- | --- | --- | --- | --- | --- |
| C=C(CCCCC)CN1CCCC1C(C)=O (configuration not stated) | > 100 µM | 51.5 µM | > 96.1 µM | > 95.1 µM | > 95.7 µM | > 100 µM | 78.7 µM | 40.1 µM | > 100 µM |  |  |  |  |  |  |  |  |  |  |  |
| Cc1ccc(C)c(N2C(=O)C(=O)C(c3nc4ccccc4s3)/C(=N/N)C2=O)c1 (configuration not stated) | > 100 µM | > 100 µM | > 100 µM | > 100 µM | > 100 µM | > 100 µM | > 100 µM | > 100 µM | > 100 µM |  |  |  |  |  |  |  |  |  |  |  |
| COc1ccc(Cc2c3cc(O)c(=O)cc-3ccn2C)cc1 | > 100 µM | > 100 µM | > 100 µM | > 100 µM | 73.7 µM | > 100 µM | > 100 µM | 37 µM | > 100 µM |  |  |  |  |  |  |  |  |  |  |  |
| CCOC(=O)c1cc(C(=O)c2ccc(OC)cc2)n2ccc(/C=C/c3cc[n+](CC(=O)c4ccc(OC)cc4)cc3)cc12 | 4.55 µM | 3.31 µM |  | 8.32 µM |  | 4.06 µM |  | 2.29 µM | 4.02 µM | 1.81 µM | 0.567 µM | 2.02 µM | 1.73 µM | 0.367 µM | 1.72 µM |  |  |  |  |  |
| CN(CCS(=O)(=O)N1C(=O)C2CCCN2C(=O)[C@@H]1Cc1ccccc1)C(=O)OCc1ccccc1 (some centres not stated) | > 100 µM | > 100 µM | > 100 µM | > 100 µM | > 100 µM | > 100 µM | > 100 µM | > 100 µM | > 100 µM |  |  |  |  |  |  |  |  |  |  |  |
| O=C1C=C(Nc2ccc(Cl)cc2Cl)c2ccccc2C1=O | > 100 µM | > 100 µM | > 100 µM | > 100 µM | > 100 µM | > 100 µM | 70.4 µM | 74.9 µM | > 100 µM |  |  |  |  |  |  |  |  |  |  |  |
| COC(COC(N)=O)C1=C(N2CC2)C(=O)C(C)=C(N2CC2)C1=O (configuration not stated) | 0.521 µM | 1.76 µM | 0.71 µM | 0.24 µM | 0.256 µM | 1.75 µM | 0.322 µM | 2.19 µM | 0.703 µM |  |  |  |  |  |  |  |  |  |  |  |
| C/C(=N\N=C(N)N)C(CN1CCCCC1)C(c1ccccc1)c1c(O)c2ccccc2oc1=O (configuration not stated) | > 100 µM | > 100 µM | > 100 µM | > 100 µM | > 100 µM | > 100 µM | > 100 µM | > 100 µM | > 100 µM |  |  |  |  |  |  |  |  |  |  |  |
| COC1CCC(OS(C)(=O)=O)C(CO)O1 (configuration not stated) | > 100 µM | > 100 µM | > 100 µM | > 100 µM | > 100 µM |  | > 100 µM | > 100 µM | > 100 µM |  |  |  |  |  |  |  |  |  |  |  |
| NCCSSCc1ccccc1CSSCCN | > 100 µM | 43.4 µM | > 100 µM | > 100 µM | > 100 µM | > 100 µM | > 100 µM | > 100 µM | 45.8 µM |  |  |  |  |  |  |  |  |  |  |  |
| Cc1nc2sccn2c1C(=O)NN | > 100 µM | > 100 µM | > 100 µM | > 100 µM | > 100 µM | > 100 µM |  | > 100 µM | > 100 µM |  |  |  |  |  |  |  |  |  |  |  |
| COc1ccc(C(c2ccccc2)(c2ccc(OC)cc2)N2C(=O)NC3C(CCCCC(=O)NCCCCCCOP(OCCC#N)N(C(C)C)C(C)C)SCC32)cc1 (configuration not stated) | 31.7 µM | 32.2 µM |  | 90.6 µM | 24.2 µM |  |  | 27.2 µM | 43.8 µM |  |  |  |  |  |  |  |  |  |  |  |
| O=C(C(=O)c1cc2ccccc2[nH]1)c1cc2ccccc2[nH]1 | > 347 µM | > 347 µM | > 347 µM | > 347 µM | > 347 µM | > 347 µM | > 347 µM | > 110 µM | > 347 µM |  |  |  |  |  |  |  |  |  |  |  |
| CCC[C@H]1O[C@@H]2CC(=O)O[C@@H]2C2=C1C(=O)C=CC2=O | 43.3 µM | > 46.5 µM | 36 µM | > 74.9 µM | 30.4 µM | > 100 µM | 36 µM | 49.8 µM | 35.7 µM |  |  |  |  |  |  |  |  |  |  |  |
| C=C(C)[C@H]1CC[C@@]2(C)C(C1)[C@H](C)CC[C@@H]2O (some centres not stated) | > 100 µM | > 100 µM | > 100 µM | > 100 µM | > 100 µM | > 100 µM | > 100 µM | > 100 µM | > 100 µM |  |  |  |  |  |  |  |  |  |  |  |
| C=CSCCC(N)C(=O)O (configuration not stated) | > 100 µM | > 100 µM | > 100 µM | > 100 µM | > 100 µM | > 100 µM | > 100 µM | > 100 µM | > 100 µM |  |  |  |  |  |  |  |  |  |  |  |
| CC(C)(O)C(O)COc1c2c(cc3oc(=O)ccc13)OCO2 (configuration not stated) | > 100 µM | > 100 µM | > 100 µM | > 100 µM | > 100 µM | > 100 µM | > 100 µM | > 100 µM | > 100 µM |  |  |  |  |  |  |  |  |  |  |  |
| C=C[C@@H](C)[C@]1(C(=O)OC)CCCC12OCCO2 | > 100 µM | > 100 µM | > 100 µM | > 100 µM | > 100 µM | > 100 µM | > 100 µM | > 100 µM |  |  |  |  |  |  |  |  |  |  |  |  |
| COc1ccc2ncn(-c3cc(O[C@H](C)c4ccccc4C(F)(F)F)c(C(N)=O)s3)c2c1 | 3.21 µM | 19.4 µM | 14.9 µM | 8.81 µM | 3.72 µM | 11.3 µM | 6.6 µM |  | 6.01 µM | 0.0839 µM | 0.109 µM | 0.117 µM | 1.88 µM |  | 0.0749 µM | 0.31 µM | 7.18 µM | 0.162 µM | 0.0902 µM | 0.917 µM |

Source: PubChem BioAssay (NCI)
